# Reference: patent US20100311756A1, “METHODS FOR DELAYING THE PROGRESSION OF AT LEAST ONE OF CARDIAC HYPERTROPHY, CARDIAC REMODELING OR LEFT VENTRICULAR FUNCTION OR THE ONSET OF HEART FAILURE IN SUBJECTS IN NEED OF TREATMENT THEREOF” (TAKEDA PHARMACEUTICALS NORTH AMERICA, INC., priority 2009, published 2010)
# Assay: Serum uric acid level in rabbits (unpublished observations, 1998)
# Type: in vivo
# Conditions: oral dose of 10 mg/kg
# Description: The procedures used in this study were reviewed and approved by the Institutional Animal Care and Use Committee (IACUC) of QTest Labs for compliance with regulations and current accepted practices. All applicable sections of the Final Rules of the Animal Welfare Act regulations (Section 9 CFR) and the Public Health Service Policy on Humane Care and Use of Laboratory Animals (OPRR, NIH, 1986) were followed. At the end of the study, all animals were humanely euthanized in accordance with accepted guidelines of the American Veterinary Medical Association (See, American Veterinary Medicine Association (AVMA), 2000 Report of the AVMA Panel on Euthanasia, The Journal of the American Veterinary Medical Association, 218(5):669-696 (2001)). • Drugs Febuxostat and allopurinol (Sigma-Aldrich, St. Louis, Mo., USA) were each formulated as a suspension in 0.5% methylcellulose (Sigma-Aldrich, St. Louis, Mo.) as the vehicle. The febuxostat oral dose of 10 mg/kg was estimated to provide a similar plasma level of febuxostat as the clinically efficacious dose (See, Khosravan et al., Clinical Pharmacokinetics, 45(8):821-841 (2006)). […] Allopurinol was given orally at 60 mg/kg. […] The rabbits were anesthetized with an intramuscular injection of ketamine (35 mg/kg)/xylazine (5 mg/kg) and pre-surgery enrofloxacin (12 mg/kg). […]
structure (smiles),measurement,value
"Cc1nc(-c2ccc(OCC(C)C)c(C#N)c2)sc1C(=O)O [febuxostat, 2-[3-cyano-4-(2-methylpropoxy)phenyl]-4-methylthiazole-5-carboxylic acid]",Serum uric acid level,significant reduction
